Structures can show the parent of a compound that is named as a salt.
Columns and labels:
PDGFR beta = target: T1, PDGFR beta (Homo sapiens, UniProt P09619); assay: Phospho PDGFR LICOR Cell Assay (Example B); format: cell-based; conditions: averaged IC50; PDGFR beta phosphorylation in HS27 human fibroblast cell line, PDGF-BB stimulation 10 minutes, normalized to total ERK
T1 construct: endogenous in cells; host or cells: HS27 human fibroblast cell line
Protocol: Compounds were screened for inhibition of PDGFR beta phosphorylation in the HS27 human fibroblast cell line. Cells were seeded into a 96 well tissue culture plate, then incubated overnight in a 37° C./5% CO2 incubator. The following day, cells were treated for one hour with test compound dilutions. After stimulation with PDGF-BB ligand for 10 minutes, cells were washed with PBS and fixed in 3.7% formaldehyde in PBS for 10 minutes. This was followed by washing in PBS/0.2% Triton X-100 and permeabilizing in 100% MeOH for 10 minutes. Cells were incubated in blocking buffer for 1 hour. Antibodies to phosphorylated PDGFRβ and total ERK were added to the cells and incubated for 3 hours. After washing with PBS/0.2% Triton X-100, the cells were incubated with fluorescently-labeled secondary antibodies for an additional hour. Cells were then washed with PBS and analyzed for fluorescence at both wavelengths using the Odyssey Infrared Imaging System (LI-COR Biosciences). Phosphorylated PDGFR signal was normalized to total ERK signal. A standard 4-parameter logistic model was fit to the inhibitor dose response curves, with the IC50 being defined as the concentration of inhibitor giving 50 percent of control (POC).

cFMS = target: T2, cFMS (Homo sapiens, UniProt P07333); assay: cFMS Cell-Based Assay (Example C); conditions: averaged IC50; phospho-cFMS in THP-1 cells stimulated with 250 ng/mL recombinant human MCSF; read-out: cFMS Cell ELISA IC50
T2 construct: THP-1 cells (human acute monocytic leukemia cell line) were serum-starved for 4 hours; endogenous in cells; host or cells: THP-1 cells (human acute monocytic leukemia cell line)
T2 sequence (P07333 20-972): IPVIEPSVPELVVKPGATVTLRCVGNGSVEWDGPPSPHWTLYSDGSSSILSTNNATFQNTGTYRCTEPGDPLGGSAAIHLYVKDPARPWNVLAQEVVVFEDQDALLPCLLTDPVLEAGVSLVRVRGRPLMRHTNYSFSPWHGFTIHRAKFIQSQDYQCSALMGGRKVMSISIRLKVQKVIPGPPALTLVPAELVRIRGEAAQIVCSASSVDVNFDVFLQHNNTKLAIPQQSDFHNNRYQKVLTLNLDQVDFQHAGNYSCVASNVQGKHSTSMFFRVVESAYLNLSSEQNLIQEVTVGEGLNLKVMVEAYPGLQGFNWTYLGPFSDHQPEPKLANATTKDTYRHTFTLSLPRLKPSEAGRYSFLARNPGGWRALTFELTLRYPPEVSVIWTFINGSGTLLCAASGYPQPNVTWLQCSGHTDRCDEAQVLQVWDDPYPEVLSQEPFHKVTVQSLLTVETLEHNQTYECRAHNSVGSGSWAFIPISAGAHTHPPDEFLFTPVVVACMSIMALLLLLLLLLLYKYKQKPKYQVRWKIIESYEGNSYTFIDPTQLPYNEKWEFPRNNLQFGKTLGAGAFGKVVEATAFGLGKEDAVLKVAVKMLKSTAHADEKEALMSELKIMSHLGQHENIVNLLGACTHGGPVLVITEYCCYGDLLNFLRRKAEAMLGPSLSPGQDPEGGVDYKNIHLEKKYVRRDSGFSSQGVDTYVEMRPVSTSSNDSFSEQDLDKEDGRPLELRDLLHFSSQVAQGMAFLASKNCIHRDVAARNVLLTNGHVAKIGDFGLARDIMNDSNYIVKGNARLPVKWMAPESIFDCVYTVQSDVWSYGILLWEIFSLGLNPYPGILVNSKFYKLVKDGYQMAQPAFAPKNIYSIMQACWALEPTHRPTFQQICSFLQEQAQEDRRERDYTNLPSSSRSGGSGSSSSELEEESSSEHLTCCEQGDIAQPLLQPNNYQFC
Protocol: The ability of compounds of Formula I to inhibit cFMS activation in cells was determined by the following assay. THP-1 cells (human acute monocytic leukemia cell line) were serum-starved for 4 hours prior to treatment with compounds of Formula I for 1 hour. The concentration of compounds of Formula I was varied over a 9-point, 3-fold dilution series with 5,000 nM typically being the highest dose. Cell culture and treatment were carried out in a humidified 37° C., 5% CO2 incubator. Treated cells were stimulated with 250 ng/mL recombinant human MCSF for 1 minute to induce activation of cFMS. Cells were lysed in a manner which preserves phosphoproteins, and the lysate was analyzed by ELISA (R&D Systems, Human Phospho-M-CSF R DuoSet IC DYC3268), in which total cFMS protein in the lysate is captured and phosphotyrosine residues of cFMS are detected. A standard curve, made using purified phospho-M-CSF R protein, was used to quantify phospho-c-FMS in compound-treated wells. A standard 4-parameter logistic model was fit to the inhibitor dose response curves, with the IC50 being defined as the concentration of inhibitor giving 50 percent of control (POC).

c-KIT = target: T3, c-KIT (Homo sapiens, UniProt P10721); assay: c-KIT Cell-Based Assay (Example D); conditions: averaged IC50; phospho-c-KIT in M-07e cells stimulated with 150 ng/ml recombinant human SCF; read-out: cKIT Cell ELISA IC50
T3 construct: M-07e cells (human acute megakaryoblastic leukemia cell line) were serum-starved for 4 hours; endogenous in cells; host or cells: M-07e cells (human acute megakaryoblastic leukemia cell line)
T3 sequence (P10721 26-976): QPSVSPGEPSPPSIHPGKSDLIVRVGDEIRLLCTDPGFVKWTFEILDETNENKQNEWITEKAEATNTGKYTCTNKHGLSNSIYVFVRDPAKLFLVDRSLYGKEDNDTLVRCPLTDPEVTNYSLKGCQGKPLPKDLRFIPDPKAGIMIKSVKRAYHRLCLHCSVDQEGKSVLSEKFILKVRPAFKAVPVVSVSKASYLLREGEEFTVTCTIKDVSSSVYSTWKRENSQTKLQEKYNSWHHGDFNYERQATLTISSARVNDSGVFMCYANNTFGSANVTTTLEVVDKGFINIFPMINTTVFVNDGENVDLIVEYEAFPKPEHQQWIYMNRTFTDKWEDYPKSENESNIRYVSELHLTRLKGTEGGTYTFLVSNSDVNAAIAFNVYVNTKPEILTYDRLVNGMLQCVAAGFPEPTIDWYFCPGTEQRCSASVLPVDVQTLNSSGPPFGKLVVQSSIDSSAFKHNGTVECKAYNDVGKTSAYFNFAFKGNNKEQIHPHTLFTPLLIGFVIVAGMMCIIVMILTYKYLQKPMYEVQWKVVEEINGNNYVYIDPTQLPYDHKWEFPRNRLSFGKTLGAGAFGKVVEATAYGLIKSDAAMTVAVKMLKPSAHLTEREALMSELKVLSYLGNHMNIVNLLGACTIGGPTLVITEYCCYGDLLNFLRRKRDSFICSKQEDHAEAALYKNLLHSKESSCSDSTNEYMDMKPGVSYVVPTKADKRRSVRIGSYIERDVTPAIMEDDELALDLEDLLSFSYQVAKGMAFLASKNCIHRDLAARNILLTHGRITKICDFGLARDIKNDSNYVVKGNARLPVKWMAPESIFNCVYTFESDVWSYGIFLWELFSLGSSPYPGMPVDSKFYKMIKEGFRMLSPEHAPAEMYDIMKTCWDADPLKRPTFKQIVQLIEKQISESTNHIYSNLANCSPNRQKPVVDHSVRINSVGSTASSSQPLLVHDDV
Protocol: The ability of compounds of Formula I to inhibit c-KIT activation in cells was determined by the following assay. M-07e cells (human acute megakaryoblastic leukemia cell line) were serum-starved for 4 hours prior to treatment with compounds of Formula I for 1 hour. The concentration of compounds of Formula I was varied over a 9-point, 3-fold dilution series with 5,000 nM typically being the highest dose. Cell culture and treatment were carried out in a humidified 37° C., 5% CO2 incubator. Treated cells were stimulated with 150 ng/ml recombinant human SCF for 4 minutes to induce activation of c-KIT. Cells were lysed in a manner which preserves phosphoproteins, and the lysate was analyzed by ELISA (R&D Systems, Human Phospho-SCF R DuoSet IC DYC3527), in which total c-KIT protein in the lysate is captured and phosphotyrosine residues of c-Kit are detected. A standard curve, made using purified phospho-SCF R protein, was used to quantify phospho-c-KIT in compound-treated wells. A standard 4-parameter logistic model was fit to the inhibitor dose response curves, with the IC50 being defined as the concentration of inhibitor giving 50 percent of control (POC).

T1 sequence (P09619 33-1106): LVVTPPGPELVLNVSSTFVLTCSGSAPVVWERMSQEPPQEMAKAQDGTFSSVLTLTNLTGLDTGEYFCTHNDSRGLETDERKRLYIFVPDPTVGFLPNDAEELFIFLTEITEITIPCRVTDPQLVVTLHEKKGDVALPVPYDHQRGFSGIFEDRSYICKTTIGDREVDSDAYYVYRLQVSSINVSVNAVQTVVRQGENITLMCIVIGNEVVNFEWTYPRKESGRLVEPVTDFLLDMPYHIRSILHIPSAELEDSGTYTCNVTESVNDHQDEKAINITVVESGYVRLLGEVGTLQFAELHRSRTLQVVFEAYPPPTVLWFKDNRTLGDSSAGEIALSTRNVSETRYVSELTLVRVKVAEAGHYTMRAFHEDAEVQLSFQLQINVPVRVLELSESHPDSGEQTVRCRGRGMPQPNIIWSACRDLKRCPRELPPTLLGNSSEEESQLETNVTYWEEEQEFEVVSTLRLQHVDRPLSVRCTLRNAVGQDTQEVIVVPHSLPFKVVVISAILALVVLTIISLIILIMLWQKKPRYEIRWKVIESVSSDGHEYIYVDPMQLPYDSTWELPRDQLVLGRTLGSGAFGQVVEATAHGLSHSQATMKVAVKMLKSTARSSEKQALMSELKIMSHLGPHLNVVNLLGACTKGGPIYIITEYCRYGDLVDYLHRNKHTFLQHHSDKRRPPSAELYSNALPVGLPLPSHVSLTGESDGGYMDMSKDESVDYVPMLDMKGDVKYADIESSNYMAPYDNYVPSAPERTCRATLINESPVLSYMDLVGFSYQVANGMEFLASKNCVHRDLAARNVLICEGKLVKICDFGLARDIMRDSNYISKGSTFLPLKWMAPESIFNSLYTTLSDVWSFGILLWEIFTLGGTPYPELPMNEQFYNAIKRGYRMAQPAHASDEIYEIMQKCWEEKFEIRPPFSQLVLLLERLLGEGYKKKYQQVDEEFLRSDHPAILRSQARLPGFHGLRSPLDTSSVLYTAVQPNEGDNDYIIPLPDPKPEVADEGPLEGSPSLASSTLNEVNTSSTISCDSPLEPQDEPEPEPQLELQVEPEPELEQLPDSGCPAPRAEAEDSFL

SMILES | IC50 (PDGFR beta) [nM] | IC50 (cFMS) [nM] | IC50 (c-KIT) [nM]
CNC(=O)c1cccc(Cn2ncc3c(NC(=O)c4cnc5cc(OCCOC)ccn45)cccc32)c1 [Example 95, 7-(2-Methoxyethoxy)-N-(1-(3-(methylcarbamoyl)benzyl)-1H-indazol-4-yl)imidazo[1,2-a]pyridine-3-carboxamide] | 74.3 | 31.4 | 78.2
CN1CCN(CCOc2ccn3c(C(=O)Nc4cccc5c4cnn5Cc4cccn(C)c4=O)cnc3c2)CC1 [Example 104, N-(1-((1-methyl-2-oxo-1,2-dihydropyridin-3-yl)methyl)-1H-indazol-4-yl)-7-(2-(4-methylpiperazin-1-yl)ethoxy)imidazo[1,2-a]pyridine-3-carboxamide dihydrochloride] | 78.4 | 33.7 | 398
CN1CCN(CCOc2ccn3c(C(=O)Nc4cccc5c4cnn5Cc4cn(C)cn4)cnc3c2)CC1 [Example 106, N-(1-((1-methyl-1H-imidazol-4-yl)methyl)-1H-indazol-4-yl)-7-(2-(4-methylpiperazin-1-yl)ethoxy)imidazo[1,2-a]pyridine-3-carboxamide dihydrochloride] | 558 | 159 | 748
CN1CCN(CCOc2ccn3c(C(=O)Nc4cccc5c4cnn5CCc4ccccn4)cnc3c2)CC1 [Example 107, 7-(2-(4-methylpiperazin-1-yl)ethoxy)-N-(1-(2-(pyridin-2-yl)ethyl)-1H-indazol-4-yl)imidazo[1,2-a]pyridine-3-carboxamide] | 158 | 44.8 | 123
CN1CCN(CCOc2ccn3c(C(=O)Nc4cccc5c4cnn5Cc4ccc5[nH]cnc5c4)cnc3c2)CC1 [Example 108, N-(1-((1H-benzo[d]imidazol-5-yl)methyl)-1H-indazol-4-yl)-7-(2-(4-methylpiperazin-1-yl)ethoxy)imidazo[1,2-a]pyridine-3-carboxamide dihydrochloride] | 142 | 66.7 | 181
COCCOc1ccn2c(C(=O)Nc3cccc4c3cnn4CC3CC3)cnc2c1 [Example 110, N-(1-(cyclopropylmethyl)-1H-indazol-4-yl)-7-(2-methoxyethoxy)imidazo[1,2-a]pyridine-3-carboxamide] | 1000 | 380 | 168
COCCOc1ccn2c(C(=O)Nc3cccc4c3cnn4Cc3ccncc3)cnc2c1 [Example 111, 7-(2-methoxyethoxy)-N-(1-(pyridin-4-ylmethyl)-1H-indazol-4-yl)imidazo[1,2-a]pyridine-3-carboxamide] | 449 | 150 | 451
COCCOc1ccn2c(C(=O)Nc3cccc4c3cnn4CC3CCOCC3)cnc2c1 [Example 113, 7-(2-methoxyethoxy)-N-(1-((tetrahydro-2H-pyran-4-yl)methyl)-1H-indazol-4-yl)imidazo[1,2-a]pyridine-3-carboxamide] | 289 | 121 | 331

Now those with a lower IC50 (PDGFR beta), led by results:

IC50 (PDGFR beta) [nM] | IC50 (cFMS) [nM] | IC50 (c-KIT) [nM] | SMILES
65 | 46.9 | 94.8 | COCCOc1ccn2c(C(=O)Nc3cccc4c3cnn4Cc3cccc(C(N)=O)c3)cnc2c1 [Example 94, N-(1-(3-carbamoylbenzyl)-1H-indazol-4-yl)-7-(2-methoxyethoxy)imidazo[1,2-a]pyridine-3-carboxamide]
14.6 | 115 | 3.8 | COC(=O)c1cccc(Cn2ncc3c(NC(=O)c4cnc5cc(OCCN6CCN(C)CC6)ccn45)cccc32)c1 [Example 96, Methyl 3-((4-(7-(2-(4-methylpiperazin-1-yl)ethoxy)imidazo[1,2-a]pyridine-3-carboxamido)-1H-indazol-1-yl)methyl)benzoate dihydrochloride]
9.6 | 10.4 | 25.7 | CN1CCN(CCOc2ccn3c(C(=O)Nc4cccc5c4cnn5Cc4cccc(C(=O)N(C)C)c4)cnc3c2)CC1 [Example 97, N-(1-(3-(dimethylcarbamoyl)benzyl)-1H-indazol-4-yl)-7-(2-(4-methylpiperazin-1-yl)ethoxy)imidazo[1,2-a]pyridine-3-carboxamide dihydrochloride]
5.7 | 26.3 | 4.9 | CN1CCN(CCOc2ccn3c(C(=O)Nc4cccc5c4cnn5Cc4cccc(C(F)(F)F)c4)cnc3c2)CC1 [Example 98, 7-(2-(4-methylpiperazin-1-yl)ethoxy)-N-(1-(3-(trifluoromethyl)benzyl)-1H-indazol-4-yl)imidazo[1,2-a]pyridine-3-carboxamide dihydrochloride]
6.4 | 5.6 | 11.4 | CN1CCN(CCOc2ccn3c(C(=O)Nc4cccc5c4cnn5Cc4cccc(C#N)c4)cnc3c2)CC1 [Example 99, N-(1-(3-cyanobenzyl)-1H-indazol-4-yl)-7-(2-(4-methylpiperazin-1-yl)ethoxy)imidazo[1,2-a]pyridine-3-carboxamide]
6 | 23.6 | 3.3 | CN1CCN(CCOc2ccn3c(C(=O)Nc4c(Cl)ccc5c4cnn5Cc4cccc(C(F)(F)F)c4)cnc3c2)CC1 [Example 100, N-(5-chloro-1-(3-(trifluoromethyl)benzyl)-1H-indazol-4-yl)-7-(2-(4-methylpiperazin-1-yl)ethoxy)imidazo[1,2-a]pyridine-3-carboxamide]
23.7 | 43.6 | 30.5 | Cc1cccc(Cn2ncc3c(NC(=O)c4cnc5cc(OCCN6CCN(C)CC6)ccn45)ccc(Cl)c32)n1 [Example 101, N-(7-chloro-1-((6-methylpyridin-2-yl)methyl)-1H-indazol-4-yl)-7-(2-(4-methylpiperazin-1-yl)ethoxy)imidazo[1,2-a]pyridine-3-carboxamide trihydrochloride]
17.6 | 26 | 94.9 | CN1CCN(CCOc2ccn3c(C(=O)Nc4cccc5c4cnn5Cc4cccnc4)cnc3c2)CC1 [Example 102, 7-(2-(4-methylpiperazin-1-yl)ethoxy)-N-(1-(pyridin-3-ylmethyl)-1H-indazol-4-yl)imidazo[1,2-a]pyridine-3-carboxamide trihydrochloride]
2.7 | 7.3 | 7.2 | CN1CCN(CCOc2ccn3c(C(=O)Nc4cccc5c4cnn5Cc4ccc(C(F)(F)F)cn4)cnc3c2)CC1 [Example 103, 7-(2-(4-Methylpiperazin-1-yl)ethoxy)-N-(1-((5-(trifluoromethyl)pyridin-2-yl)methyl)-1H-indazol-4-yl)imidazo[1,2-a]pyridine-3-carboxamide trihydrochloride]
2.6 | 3.3 | 2.7 | CCOc1cccc(Cn2ncc3c(NC(=O)c4cnc5cc(OCCN6CCN(C)CC6)ccn45)cccc32)n1 [Example 105, N-(1-((6-ethoxypyridin-2-yl)methyl)-1H-indazol-4-yl)-7-(2-(4-methylpiperazin-1-yl)ethoxy)imidazo[1,2-a]pyridine-3-carboxamide]
16.7 | 33.7 | 68.9 | COCCOc1ccn2c(C(=O)Nc3cccc4c3cnn4Cc3ccccn3)cnc2c1 [Example 112, 7-(2-methoxyethoxy)-N-(1-(pyridin-2-ylmethyl)-1H-indazol-4-yl)imidazo[1,2-a]pyridine-3-carboxamide]

— US10669269B2, “Substituted N-(1H-indazol-4-yl)imidazo[1,2-a]pyridine-3-carboxamide compounds as type III receptor tyrosine kinase inhibitors” (ARRAY BIOPHARMA INC., priority 2010, dated 2020)
